Test results: PMC4503722, “Novel Phenotypic Outcomes Identified for a Public Collection of Approved Drugs from a Publicly Accessible Panel of Assays” (PLoS ONE, 2015)
pEC50, pIC50: −log10 of the molar value. Read-outs that look alike come from different tables or passages of the source.

Experiments:
hJAK2 = target: T1, hJAK2 (Homo sapiens, UniProt O60674); assay: Cerep LANCE kinase assay hJAK2 (S1 assay 33); assay type: biochemical; settings: read-out: JAK2
T1 construct: purchased Cerep (LANCE kinase assay platform, contract assay)

[1] = system: HCT116 cells treated with a GSK3β inhibitor; assay: cells; assay type: cell-based; settings: Homo sapiens, HCT-116, read-out: GSK3b inh pretreated_Viability ATP HCT116
INS-1E cells = assay: cells; assay type: cell-based, rat; settings: Rattus norvegicus, INS-1E, read-out: Insulin Secretion
NCI-H716 cells = assay: cells; assay type: cell-based, Human; settings: Homo sapiens, NCI-H716, read-out: GLP 1 Secretion
hFLT3 = target: T2, hFLT3 (Homo sapiens, UniProt P36888); assay: Cerep LANCE kinase assay hFLT3 (S1 assay 35); assay type: biochemical; settings: read-out: FLT3
T2 construct: purchased Cerep (LANCE kinase assay platform, contract assay)

hGSK3b = target: T3, hGSK3b (Homo sapiens, UniProt P49841); assay: Cerep LANCE kinase assay hGSK3b (S1 assay 34); assay type: biochemical; settings: read-out: GSK3b
T3 construct: purchased Cerep (LANCE kinase assay platform, contract assay)

DLD-1 = assay: cells; assay type: cell-based; settings: Homo sapiens, DLD-1, read-out: Basal_Viability ATP DLD-1
SNU-C1 = assay: cells; assay type: cell-based; settings: Homo sapiens, SNU-C1, read-out: Basal_Viability ATP SNU-C1
hKDR = target: T4, hKDR (Homo sapiens, UniProt P35968); assay: Cerep LANCE kinase assay hKDR (S1 assay 32); assay type: biochemical; settings: read-out: KDR
T4 construct: purchased Cerep (LANCE kinase assay platform, contract assay)

RKO = assay: cells; assay type: cell-based; settings: Homo sapiens, RKO, read-out: Basal_Viability ATP RKO
HCT116 = assay: cells; assay type: cell-based; settings: Homo sapiens, HCT-116, read-out: Basal_Viability ATP HCT116
HeLa cells = assay: cells; assay type: cell-based; settings: Homo sapiens, HeLa, read-out: CellCycle G2/M
[2] = system: endothelial tube formation in co-cultures of ECFCs and ADSCs treated with VEGF; assay: cells; assay type: cell-based, human; settings: Homo sapiens, read-out: Anti-Angiogenesis
hp70S6K1 (RPS6KB1) = target: T5, hp70S6K1 (RPS6KB1) (Homo sapiens, UniProt P23443); assay: Cerep LANCE kinase assay hp70S6K1 (S1 assay 31); assay type: biochemical; settings: read-out: p70S6K1
T5 construct: purchased Cerep (LANCE kinase assay platform, contract assay)

SW480 = assay: cells; assay type: cell-based; settings: Homo sapiens, SW480, read-out: Basal_Viability ATP SW480
Colo320 = assay: cells; assay type: cell-based; settings: Homo sapiens, COLO 320, read-out: Basal_Viability ATP Colo 320
HT-29 = assay: cells; assay type: cell-based; settings: Homo sapiens, HT-29, read-out: Basal_Viability ATP HT-29
[3] = system: nuclear β-catenin in C2C12 cells; assay: cells; assay type: cell-based; settings: Mus musculus, C2C12, read-out: Wnt Pathway

T5 sequence (P23443 whole entry): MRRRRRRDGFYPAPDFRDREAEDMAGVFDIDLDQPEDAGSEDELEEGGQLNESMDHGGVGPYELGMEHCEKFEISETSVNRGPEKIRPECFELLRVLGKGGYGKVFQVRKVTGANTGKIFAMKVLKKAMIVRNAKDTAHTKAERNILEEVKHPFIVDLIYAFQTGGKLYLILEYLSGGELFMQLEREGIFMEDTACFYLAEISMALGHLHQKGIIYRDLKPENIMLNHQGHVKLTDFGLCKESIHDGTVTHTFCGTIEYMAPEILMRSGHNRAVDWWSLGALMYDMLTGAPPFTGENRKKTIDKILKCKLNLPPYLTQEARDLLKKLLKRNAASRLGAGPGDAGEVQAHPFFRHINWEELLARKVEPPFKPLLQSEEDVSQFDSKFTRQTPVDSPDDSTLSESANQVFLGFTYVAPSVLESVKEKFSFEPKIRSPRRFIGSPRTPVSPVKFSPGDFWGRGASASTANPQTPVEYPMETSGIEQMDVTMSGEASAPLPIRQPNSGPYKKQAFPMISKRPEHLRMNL
T3 sequence (P49841 whole entry): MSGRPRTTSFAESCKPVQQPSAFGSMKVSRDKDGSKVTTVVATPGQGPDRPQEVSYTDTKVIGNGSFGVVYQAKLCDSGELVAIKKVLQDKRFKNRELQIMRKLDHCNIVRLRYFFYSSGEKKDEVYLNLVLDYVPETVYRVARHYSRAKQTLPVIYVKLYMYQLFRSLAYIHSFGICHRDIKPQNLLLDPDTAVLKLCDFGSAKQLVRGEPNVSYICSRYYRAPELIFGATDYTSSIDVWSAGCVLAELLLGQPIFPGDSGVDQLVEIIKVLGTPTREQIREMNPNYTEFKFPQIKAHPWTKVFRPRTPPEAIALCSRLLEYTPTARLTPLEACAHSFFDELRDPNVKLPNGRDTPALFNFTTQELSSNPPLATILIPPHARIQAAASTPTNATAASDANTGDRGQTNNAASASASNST
T4 sequence (P35968 20-1356): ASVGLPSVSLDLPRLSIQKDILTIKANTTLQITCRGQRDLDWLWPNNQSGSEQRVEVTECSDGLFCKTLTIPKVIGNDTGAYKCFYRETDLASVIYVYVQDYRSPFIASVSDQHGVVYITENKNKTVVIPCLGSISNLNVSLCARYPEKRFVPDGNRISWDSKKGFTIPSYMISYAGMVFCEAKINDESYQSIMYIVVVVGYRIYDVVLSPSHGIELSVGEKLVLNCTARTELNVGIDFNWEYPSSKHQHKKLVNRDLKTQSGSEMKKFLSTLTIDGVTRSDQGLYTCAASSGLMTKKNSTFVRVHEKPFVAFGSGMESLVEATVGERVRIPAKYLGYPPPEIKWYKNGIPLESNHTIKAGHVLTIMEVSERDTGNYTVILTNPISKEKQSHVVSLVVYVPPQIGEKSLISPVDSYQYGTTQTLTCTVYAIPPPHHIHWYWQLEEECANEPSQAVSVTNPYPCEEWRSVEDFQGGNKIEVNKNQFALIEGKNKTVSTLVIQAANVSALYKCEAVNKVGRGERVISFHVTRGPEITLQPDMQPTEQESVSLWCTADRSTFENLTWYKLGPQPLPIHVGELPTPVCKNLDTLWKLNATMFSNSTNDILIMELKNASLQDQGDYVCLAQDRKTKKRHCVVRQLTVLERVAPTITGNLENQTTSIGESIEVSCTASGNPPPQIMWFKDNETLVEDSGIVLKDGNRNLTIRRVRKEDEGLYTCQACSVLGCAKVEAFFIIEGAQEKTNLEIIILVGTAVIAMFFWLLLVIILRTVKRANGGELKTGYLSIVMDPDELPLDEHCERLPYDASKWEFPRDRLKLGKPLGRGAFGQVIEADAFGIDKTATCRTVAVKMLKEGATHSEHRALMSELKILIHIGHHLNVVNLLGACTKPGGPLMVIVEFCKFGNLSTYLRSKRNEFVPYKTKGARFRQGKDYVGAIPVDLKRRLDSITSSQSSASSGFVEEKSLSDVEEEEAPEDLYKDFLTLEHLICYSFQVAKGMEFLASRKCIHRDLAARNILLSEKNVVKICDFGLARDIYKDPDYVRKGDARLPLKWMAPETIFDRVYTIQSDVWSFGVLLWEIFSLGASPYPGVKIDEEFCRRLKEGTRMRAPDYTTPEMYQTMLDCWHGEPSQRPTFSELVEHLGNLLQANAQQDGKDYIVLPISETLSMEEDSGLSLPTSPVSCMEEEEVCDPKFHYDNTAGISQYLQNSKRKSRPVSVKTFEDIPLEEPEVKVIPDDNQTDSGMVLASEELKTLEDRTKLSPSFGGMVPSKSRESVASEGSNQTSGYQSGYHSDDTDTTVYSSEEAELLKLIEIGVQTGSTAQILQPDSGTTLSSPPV
T1 sequence (O60674 whole entry): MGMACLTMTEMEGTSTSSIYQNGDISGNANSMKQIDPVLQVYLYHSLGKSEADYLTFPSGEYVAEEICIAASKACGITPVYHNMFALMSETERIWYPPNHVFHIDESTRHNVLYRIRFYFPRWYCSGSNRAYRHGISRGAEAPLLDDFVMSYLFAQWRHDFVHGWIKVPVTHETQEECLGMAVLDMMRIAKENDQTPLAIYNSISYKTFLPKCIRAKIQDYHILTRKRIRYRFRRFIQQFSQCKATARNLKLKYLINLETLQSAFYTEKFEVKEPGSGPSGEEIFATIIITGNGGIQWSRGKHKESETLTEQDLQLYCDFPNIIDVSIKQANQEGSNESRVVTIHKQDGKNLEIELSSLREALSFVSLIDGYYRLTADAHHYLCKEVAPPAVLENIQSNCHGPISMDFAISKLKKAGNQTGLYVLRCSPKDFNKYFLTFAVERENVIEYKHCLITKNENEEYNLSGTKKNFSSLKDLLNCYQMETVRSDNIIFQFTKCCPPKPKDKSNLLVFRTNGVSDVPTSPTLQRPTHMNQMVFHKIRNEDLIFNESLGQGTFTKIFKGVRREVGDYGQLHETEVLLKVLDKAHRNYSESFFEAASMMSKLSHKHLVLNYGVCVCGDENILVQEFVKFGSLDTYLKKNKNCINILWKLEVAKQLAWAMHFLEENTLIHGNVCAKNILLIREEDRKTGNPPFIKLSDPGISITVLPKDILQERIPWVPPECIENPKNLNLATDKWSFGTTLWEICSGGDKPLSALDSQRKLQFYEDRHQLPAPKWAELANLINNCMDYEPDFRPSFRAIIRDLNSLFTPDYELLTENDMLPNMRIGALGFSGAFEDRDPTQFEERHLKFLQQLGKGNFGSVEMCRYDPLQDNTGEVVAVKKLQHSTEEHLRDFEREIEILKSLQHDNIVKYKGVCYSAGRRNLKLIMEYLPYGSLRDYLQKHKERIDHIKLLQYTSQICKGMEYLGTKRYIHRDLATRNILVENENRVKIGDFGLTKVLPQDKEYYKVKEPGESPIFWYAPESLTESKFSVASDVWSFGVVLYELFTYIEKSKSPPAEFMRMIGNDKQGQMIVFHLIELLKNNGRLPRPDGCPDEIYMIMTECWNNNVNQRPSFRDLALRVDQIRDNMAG
T2 sequence (P36888 27-993): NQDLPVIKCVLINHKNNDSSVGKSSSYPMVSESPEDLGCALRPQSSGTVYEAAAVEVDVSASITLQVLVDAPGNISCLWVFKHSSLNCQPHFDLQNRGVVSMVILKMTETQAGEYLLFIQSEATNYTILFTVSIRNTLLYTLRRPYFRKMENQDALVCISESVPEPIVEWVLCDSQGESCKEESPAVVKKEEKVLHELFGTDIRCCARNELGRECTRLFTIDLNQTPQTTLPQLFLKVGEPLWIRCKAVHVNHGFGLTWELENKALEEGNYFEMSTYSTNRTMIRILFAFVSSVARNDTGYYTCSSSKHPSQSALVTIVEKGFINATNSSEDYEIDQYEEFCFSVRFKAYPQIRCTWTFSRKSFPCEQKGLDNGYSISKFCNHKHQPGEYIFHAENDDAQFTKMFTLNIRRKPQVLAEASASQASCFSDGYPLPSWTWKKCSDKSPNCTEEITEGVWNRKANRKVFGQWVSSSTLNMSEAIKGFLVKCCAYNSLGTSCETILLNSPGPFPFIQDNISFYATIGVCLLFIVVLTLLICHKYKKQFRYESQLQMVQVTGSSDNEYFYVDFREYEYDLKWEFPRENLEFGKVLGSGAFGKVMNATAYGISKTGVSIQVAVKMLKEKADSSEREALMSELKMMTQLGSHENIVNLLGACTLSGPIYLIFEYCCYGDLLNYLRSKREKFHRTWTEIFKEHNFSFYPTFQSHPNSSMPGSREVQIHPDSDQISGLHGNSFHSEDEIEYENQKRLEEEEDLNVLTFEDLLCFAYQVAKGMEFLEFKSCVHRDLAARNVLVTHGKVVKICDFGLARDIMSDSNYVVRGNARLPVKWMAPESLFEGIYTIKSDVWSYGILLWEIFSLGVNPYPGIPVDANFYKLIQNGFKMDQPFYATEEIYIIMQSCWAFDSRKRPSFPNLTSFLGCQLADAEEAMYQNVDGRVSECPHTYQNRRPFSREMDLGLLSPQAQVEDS

Row | Compound | pIC50 (hJAK2; kinase assay) | pIC50 [1] | pEC50 (INS-1E cells) | pEC50 (NCI-H716 cells) | pIC50 (hFLT3; kinase assay) | pIC50 (hGSK3b; kinase assay) | pIC50 (DLD-1) | pIC50 (SNU-C1) | pIC50 (hKDR; kinase assay) | pIC50 (RKO) | pIC50 (HCT116) | pEC50 (HeLa cells) | pIC50 [2] | pIC50 (hp70S6K1 (RPS6KB1); kinase assay) | pIC50 (SW480) | pIC50 (Colo320) | pIC50 (HT-29) | pEC50 [3] | also measured
1 | Sc1ncnc2nc[nH]c12 [Mercaptopurine] | < 4.70 | 5.85 | < 5.00 | < 5.00 | < 4.70 | < 4.70 | 6.59 | < 4.70 | < 4.70 | 6.18 | 6.59 | < 5.00 | 6.04 | < 4.70 | 5.98 | 5.89 | 6.20 | < 5.00 | –
2 | COc1c(C)c2c(c(O)c1C/C=C(\C)CCC(=O)O)C(=O)OC2 [Mycophenolate] | < 4.70 | 7.30 | < 5.00 | < 5.00 | < 4.70 | < 4.70 | < 4.70 | < 4.70 | < 4.70 | 6.78 | 7.17 | < 5.00 | 5.90 | < 4.70 | 5.59 | 9.00 | < 4.70 | < 5.00 | –
3 | Nc1nc2nc[nH]c2c(=S)[nH]1 [Tioguanine] | < 4.70 | 6.79 | < 5.00 | < 5.00 | < 4.70 | < 4.70 | 6.97 | 5.36 | < 4.70 | 6.46 | 6.86 | < 5.00 | 6.21 | < 4.70 | 6.40 | 6.43 | 7.31 | < 5.00 | –
4 | Cc1cc(C2CCCCC2)n(O)c(=O)c1 [ciclopirox] | < 4.70 | 6.41 | < 5.00 | < 5.00 | < 4.70 | < 4.70 | 6.50 | < 4.70 | < 4.70 | 6.63 | 6.18 | < 5.00 | < 5.00 | < 4.70 | 6.33 | 6.68 | 5.15 | 5.98 | –
5 | O=C(O)c1ccc(-n2nc(-c3ccccc3O)nc2-c2ccccc2O)cc1 [deferasirox] | – | 6.62 | < 5.00 | < 5.00 | – | – | 6.19 | 6.63 | – | 7.00 | 6.36 | < 5.00 | 5.68 | – | 7.11 | 6.39 | 6.29 | < 5.00 | pIC50 (hJAK2): 4.74; pIC50 (hFLT3): < 4.70; pIC50 (hGSK3b): < 4.70; pIC50 (hKDR): < 4.70; pIC50 (hp70S6K1 (RPS6KB1)): < 4.70
